Molecules are shown by their SMILES.

In one assay the target is T1, TRESK (Homo sapiens, UniProt Q7Z418).
T1 sequence (Q7Z418 1-384): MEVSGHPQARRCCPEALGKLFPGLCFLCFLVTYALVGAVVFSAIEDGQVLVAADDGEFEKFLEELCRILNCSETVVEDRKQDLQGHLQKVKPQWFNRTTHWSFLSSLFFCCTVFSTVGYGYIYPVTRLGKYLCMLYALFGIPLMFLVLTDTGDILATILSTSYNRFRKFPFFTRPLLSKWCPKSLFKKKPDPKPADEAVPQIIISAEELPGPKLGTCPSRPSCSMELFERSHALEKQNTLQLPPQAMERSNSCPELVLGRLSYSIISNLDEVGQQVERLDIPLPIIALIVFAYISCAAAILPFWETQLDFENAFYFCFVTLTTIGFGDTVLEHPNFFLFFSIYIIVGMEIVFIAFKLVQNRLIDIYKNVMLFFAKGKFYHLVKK
The assay can be described thus: cell-based.

For another assay, the target named is T2, EAG1 (Homo sapiens, UniProt O95259).
T2 sequence (O95259 1-989): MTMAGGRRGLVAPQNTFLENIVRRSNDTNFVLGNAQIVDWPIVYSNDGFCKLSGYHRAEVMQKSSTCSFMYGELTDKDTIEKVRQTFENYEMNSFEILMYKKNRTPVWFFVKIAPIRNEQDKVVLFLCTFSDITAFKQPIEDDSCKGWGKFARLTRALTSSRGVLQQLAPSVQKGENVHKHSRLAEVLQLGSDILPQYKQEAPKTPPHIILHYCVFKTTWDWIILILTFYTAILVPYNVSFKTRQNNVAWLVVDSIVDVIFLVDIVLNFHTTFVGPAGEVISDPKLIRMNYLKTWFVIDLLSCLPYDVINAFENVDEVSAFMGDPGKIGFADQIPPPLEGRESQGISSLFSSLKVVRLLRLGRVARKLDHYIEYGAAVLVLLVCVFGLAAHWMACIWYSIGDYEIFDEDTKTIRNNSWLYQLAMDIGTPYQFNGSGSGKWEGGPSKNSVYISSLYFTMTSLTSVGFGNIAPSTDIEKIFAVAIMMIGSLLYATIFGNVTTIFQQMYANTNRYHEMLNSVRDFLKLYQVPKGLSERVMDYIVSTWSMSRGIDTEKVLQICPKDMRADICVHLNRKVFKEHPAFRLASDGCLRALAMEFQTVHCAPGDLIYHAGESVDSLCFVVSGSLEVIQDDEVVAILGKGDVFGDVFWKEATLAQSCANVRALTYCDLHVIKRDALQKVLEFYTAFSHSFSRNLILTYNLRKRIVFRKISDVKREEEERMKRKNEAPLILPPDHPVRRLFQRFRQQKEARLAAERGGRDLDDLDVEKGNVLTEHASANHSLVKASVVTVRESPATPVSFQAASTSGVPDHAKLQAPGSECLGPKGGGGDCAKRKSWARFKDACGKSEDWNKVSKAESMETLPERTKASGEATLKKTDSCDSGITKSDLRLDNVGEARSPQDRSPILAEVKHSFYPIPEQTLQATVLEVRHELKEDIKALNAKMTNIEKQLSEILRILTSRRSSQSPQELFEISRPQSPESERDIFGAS
The assay is described as follows: cell-based.

A further assay deals with T3, TWIK2 (Homo sapiens, UniProt Q9Y257).
T3 sequence (Q9Y257 1-313): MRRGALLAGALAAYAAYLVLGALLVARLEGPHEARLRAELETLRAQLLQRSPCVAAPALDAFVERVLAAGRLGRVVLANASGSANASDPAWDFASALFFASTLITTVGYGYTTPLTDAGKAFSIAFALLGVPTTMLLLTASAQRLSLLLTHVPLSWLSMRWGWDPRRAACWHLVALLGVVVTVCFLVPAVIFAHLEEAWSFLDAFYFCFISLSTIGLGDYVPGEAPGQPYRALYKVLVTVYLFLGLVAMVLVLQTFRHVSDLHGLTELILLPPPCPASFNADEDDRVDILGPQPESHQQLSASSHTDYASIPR
The assay is described as follows: cell-based.

A further assay concerns the target KCNQ1 (Homo sapiens, UniProt P51787). The assay can be described thus: cell-based.
In assay [1] the target is TASK-1 (K2P3.1), wild type (Homo sapiens, UniProt O14649). The assay is described as follows: two-electrode voltage clamp, Xenopus oocytes. The class given is cell-based. (In general: In two-electrode clamp one electrode senses voltage and the other passes current.)
TASK-1 (K2P3.1), wild type, sequence (O14649 whole entry): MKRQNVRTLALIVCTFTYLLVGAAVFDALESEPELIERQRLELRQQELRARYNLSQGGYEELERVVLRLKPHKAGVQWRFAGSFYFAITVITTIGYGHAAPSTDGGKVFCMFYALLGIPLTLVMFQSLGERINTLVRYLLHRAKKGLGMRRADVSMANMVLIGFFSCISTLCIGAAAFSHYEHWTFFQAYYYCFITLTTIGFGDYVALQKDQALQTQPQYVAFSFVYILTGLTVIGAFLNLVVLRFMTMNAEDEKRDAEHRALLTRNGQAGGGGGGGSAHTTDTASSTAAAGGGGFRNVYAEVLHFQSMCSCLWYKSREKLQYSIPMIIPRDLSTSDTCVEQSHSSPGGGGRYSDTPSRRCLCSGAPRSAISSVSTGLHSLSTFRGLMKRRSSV
In another assay the target is Nav1.5 (Homo sapiens, UniProt Q14524). The assay is described as follows: cell-based.
Nav1.5, sequence (Q14524 whole entry): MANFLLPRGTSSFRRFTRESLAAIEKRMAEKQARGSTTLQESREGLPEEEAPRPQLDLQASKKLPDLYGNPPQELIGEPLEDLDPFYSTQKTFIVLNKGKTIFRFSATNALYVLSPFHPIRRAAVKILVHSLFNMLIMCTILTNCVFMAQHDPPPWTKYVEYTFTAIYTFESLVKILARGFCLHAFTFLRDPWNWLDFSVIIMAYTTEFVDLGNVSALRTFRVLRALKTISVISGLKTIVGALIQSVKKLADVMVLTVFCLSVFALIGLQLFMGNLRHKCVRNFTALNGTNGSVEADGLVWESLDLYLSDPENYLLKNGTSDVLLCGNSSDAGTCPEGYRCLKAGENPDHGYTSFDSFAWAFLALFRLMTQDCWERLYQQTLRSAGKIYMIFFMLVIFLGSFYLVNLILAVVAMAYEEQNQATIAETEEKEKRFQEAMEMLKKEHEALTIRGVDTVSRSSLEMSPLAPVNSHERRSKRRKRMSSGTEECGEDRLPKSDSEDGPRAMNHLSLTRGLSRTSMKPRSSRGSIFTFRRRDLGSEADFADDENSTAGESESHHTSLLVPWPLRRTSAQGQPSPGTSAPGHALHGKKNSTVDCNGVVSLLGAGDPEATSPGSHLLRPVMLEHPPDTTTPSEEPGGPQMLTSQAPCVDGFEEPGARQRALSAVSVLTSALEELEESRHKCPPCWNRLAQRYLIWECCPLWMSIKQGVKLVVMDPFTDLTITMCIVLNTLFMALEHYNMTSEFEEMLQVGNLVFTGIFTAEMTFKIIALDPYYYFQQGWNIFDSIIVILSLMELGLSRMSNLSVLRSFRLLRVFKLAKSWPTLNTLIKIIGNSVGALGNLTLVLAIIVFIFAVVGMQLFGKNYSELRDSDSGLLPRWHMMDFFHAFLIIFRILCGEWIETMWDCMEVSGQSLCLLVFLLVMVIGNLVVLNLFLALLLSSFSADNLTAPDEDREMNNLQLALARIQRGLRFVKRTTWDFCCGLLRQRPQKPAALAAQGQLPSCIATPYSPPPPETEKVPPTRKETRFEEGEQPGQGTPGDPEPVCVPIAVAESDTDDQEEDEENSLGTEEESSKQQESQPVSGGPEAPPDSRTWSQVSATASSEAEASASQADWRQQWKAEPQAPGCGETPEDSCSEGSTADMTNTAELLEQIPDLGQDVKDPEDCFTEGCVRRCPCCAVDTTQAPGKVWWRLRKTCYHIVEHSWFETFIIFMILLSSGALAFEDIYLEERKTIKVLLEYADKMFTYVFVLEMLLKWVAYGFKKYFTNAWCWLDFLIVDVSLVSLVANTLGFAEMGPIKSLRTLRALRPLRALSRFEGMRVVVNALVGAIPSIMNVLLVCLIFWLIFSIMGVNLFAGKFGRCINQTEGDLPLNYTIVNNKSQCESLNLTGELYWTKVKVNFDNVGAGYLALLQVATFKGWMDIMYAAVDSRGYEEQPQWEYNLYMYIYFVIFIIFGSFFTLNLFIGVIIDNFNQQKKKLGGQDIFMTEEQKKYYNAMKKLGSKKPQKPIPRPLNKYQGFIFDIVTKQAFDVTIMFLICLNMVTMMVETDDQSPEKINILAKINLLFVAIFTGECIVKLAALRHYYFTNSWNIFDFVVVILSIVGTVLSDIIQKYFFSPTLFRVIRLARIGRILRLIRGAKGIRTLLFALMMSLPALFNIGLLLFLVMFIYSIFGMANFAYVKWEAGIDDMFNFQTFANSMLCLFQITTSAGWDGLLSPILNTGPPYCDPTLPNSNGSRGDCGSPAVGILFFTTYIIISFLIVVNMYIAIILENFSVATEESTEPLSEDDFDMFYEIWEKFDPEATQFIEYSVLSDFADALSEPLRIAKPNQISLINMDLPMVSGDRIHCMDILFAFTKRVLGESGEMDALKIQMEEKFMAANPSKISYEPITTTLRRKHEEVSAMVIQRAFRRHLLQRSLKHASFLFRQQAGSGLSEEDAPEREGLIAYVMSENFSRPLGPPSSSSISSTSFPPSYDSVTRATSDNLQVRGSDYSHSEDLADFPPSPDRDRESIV
The next assay addresses T4, TRPC6 (Homo sapiens, UniProt Q9Y210).
T4 sequence (Q9Y210 1-931): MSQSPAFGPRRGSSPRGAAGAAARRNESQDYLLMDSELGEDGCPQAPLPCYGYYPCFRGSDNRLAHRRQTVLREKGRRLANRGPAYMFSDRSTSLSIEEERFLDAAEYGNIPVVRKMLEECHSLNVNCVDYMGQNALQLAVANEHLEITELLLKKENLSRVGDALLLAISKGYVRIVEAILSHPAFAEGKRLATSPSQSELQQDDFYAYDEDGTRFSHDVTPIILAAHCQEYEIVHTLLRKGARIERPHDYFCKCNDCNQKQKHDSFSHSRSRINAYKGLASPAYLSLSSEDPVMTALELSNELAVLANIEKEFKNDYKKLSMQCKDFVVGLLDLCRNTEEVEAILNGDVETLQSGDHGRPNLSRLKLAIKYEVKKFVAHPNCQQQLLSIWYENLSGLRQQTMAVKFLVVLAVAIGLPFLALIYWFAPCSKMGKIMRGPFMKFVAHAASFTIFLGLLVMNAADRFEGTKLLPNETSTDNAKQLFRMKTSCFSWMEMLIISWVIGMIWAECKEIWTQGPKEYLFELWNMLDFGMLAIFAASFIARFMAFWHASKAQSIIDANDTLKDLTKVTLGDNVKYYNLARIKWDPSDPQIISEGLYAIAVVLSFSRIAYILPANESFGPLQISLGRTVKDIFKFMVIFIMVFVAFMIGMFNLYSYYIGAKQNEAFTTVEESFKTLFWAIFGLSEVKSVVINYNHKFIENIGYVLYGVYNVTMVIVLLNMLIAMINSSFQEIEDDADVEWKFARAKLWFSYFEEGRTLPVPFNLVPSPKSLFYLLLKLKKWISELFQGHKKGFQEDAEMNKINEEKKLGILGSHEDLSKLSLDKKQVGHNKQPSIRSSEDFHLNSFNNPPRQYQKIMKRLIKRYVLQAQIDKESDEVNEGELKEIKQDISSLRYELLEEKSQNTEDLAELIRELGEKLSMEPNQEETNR
The assay is described as follows: cell-based.

KCNQ1, sequence (P51787 whole entry): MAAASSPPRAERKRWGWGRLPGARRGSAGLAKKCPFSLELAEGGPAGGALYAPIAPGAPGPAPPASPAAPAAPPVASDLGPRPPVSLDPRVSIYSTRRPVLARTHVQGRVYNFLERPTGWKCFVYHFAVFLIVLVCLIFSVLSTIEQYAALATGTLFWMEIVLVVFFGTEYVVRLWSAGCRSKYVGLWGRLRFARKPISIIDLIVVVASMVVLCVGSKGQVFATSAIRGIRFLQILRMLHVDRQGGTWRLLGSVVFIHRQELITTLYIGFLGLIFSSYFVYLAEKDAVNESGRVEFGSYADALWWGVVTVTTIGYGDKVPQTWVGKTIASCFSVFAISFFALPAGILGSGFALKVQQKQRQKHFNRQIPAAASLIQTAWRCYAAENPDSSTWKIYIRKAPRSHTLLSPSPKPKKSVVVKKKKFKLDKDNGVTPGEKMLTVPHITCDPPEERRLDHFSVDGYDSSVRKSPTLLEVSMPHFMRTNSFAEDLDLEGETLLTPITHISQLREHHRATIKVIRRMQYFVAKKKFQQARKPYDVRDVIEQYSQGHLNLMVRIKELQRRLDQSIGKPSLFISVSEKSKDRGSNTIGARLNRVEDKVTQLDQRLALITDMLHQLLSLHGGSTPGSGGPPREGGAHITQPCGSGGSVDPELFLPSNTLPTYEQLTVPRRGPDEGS

The term IC50 denotes the concentration that gives 50% inhibition. A higher IC50 goes with lower potency. The EC50 is the concentration at which the effect is half-maximal. The low end stands for a more potent agent, the high end for a less potent agent. Consider `O=C(c1ccccc1F)N1CCN(Cc2c(-c3ccc(Br)cc3)nc3ccccn23)CC1` [BAY 1000493, (4-{[2-(4-bromophenyl)imidazo[1,2-a]pyridin-3-yl]methyl}vpiperazin-1-yl)(2-fluorophenyl)methanone], for which the IC50 on TRESK, against EAG1, at TWIK2, against KCNQ1, against Nav1.5 and against TRPC6 was more than 30 µM throughout. The EC50 in assay [1] came out at 0.0095 µM.

Values taken from article doi:10.1101/706168v1 (biorxiv, 2019).
